{
  "source": "patent US20080161272A1",
  "about": "“Ceramide derivatives, method for preparing the same, and therapeutic agent for treating atopic dermatitis comprising the ceramide derivatives” (Neopharm Co., Ltd., priority 2006, published 2008)",
  "key": {"T lymphocyte": {"test_system": "T lymphocyte", "experiment": "Effects on generation of cytokines in ConA-activated spleen T lymphocyte (ELISA)", "assay_type": "cell-based", "details": "Balb/C mouse spleen cells, ConA 1 μg/ml, pre-treated 30 minutes before, 48 hours, 1, and 20 μM, FIG. 1", "method": "First, in order to determine effects of K6PC-9P and K6PC-9 on generation of cytokines in T lymphocyte, spleen T lymphocyte was separated, and then treated with ConA for its activation. […] Accordingly, substances that increase the expression of the Th1 cytokines or suppress the expression of the Th2 cytokines may be useful to treat the atopic dermatitis. In this experiment, the K6PC-9P and K6PC-9 were evaluated for their control abilities to express the Th1 cytokine, interleukin-2, and the Th2 cytokine, interleukin-4.\nThe mouse spleen was extracted from a Balb/C mouse to separate splenocyte. The separated splenocyte was plated onto a 96-well plate in a density of 1×10^6 cells/ml. Then, T lymphocyte in the splenocyte was activated with ConA (1 μg/ml). The K6PC-9P and K6PC-9 were pre-treated 30 minutes before the treatment with ConA. 48 hours after the treatment with ConA, culture supernatant was collected, and subject to the ELISA (enzyme-linked immunosorbent assay). The ELISA used an ELISA kit from a R&D system, and performed experiments, as follows. However, the method specified later is described as one example, and the method is identical over the entire procedures, but densities of antibodies and standard sample may be slightly varied depending on the kinds of cytokines to be measured. A capture antibody was diluted to a density of 0.6 μg/ml, and transferred to an ELISA plate by 100 μl, and the plate was sealed and kept overnight at a room temperature. The capture antibody was discarded, and the plate was washed three times with a wash buffer (PBS containing 0.05% Tween 20 (pH 7.4)). 200 μl of a blocking buffer (PBS containing 1% BSA, 5% sucrose and 0.05% NaN) was put into plate wells, kept at a room temperature for 1 hour, and then washed three times with a wash buffer. The collected culture supernatant and the standard sample were prepared using a dilution buffer (TBS containing 0.1% BSA and 0.05% Tween 20), put into plate wells, and then kept at a room temperature for 2 hours. The plate was washed three times with a wash buffer, and a biotinylated detection antibody was diluted with a dilution buffer to a density of 200 ng/ml, and then put into the plate wells. 2 hours after the treatment, the plate was washed three times with a wash buffer, and streptavidin HRP was added to the plate, and then kept for 20 minutes. […] When the colors were suitably developed on the plate, the reaction was stopped with a stop solution (1M H2SO4), and its absorbance was measured at wavelengths of 450 nm and 540 nm. A standard curve was plotted using the standard absorbance obtained by subtracting a 540 nm absorbance value from a 450 nm absorbance value, and a density of cytokines to be measured was calculated using the standard absorbance of the culture supernatant."}, "NC/Nga mouse": {"test_system": "NC/Nga mouse", "experiment": "Atopic dermatitis caused by dust mite extract in NC/Nga mouse, ear thickness", "assay_type": "in vivo", "details": "two kinds of dust mites (D. pteronyssinus, D. farinae), applied to ear dorsal surface 30 minutes before extract, 16 days, FIGS. 2 and 3", "from_the_text": "Next, an animal model (NC/Nga mouse) where a mouse suffers from atopic dermatitis was used to evaluate an inflammation control effects of the K6PC-9P on the atopic dermatitis. The NC/Nga mouse is a mouse that spontaneously suffers from the dermatitis, and has been proven to be an animal model that is the most suitably used to treat atopic dermatitis. Therefore, The NC/Nga mouse has been widely used in the animal model to evaluate substances that are effective to treat the atopic dermatitis. For this experiment, a dust mite that is a representative inducer factor of the atopic dermatitis was applied to a NC/Nga mouse to induce the dermatitis.\nThe extract of dust mite (Dermatophagoides pteronyssinus, Dermatophagoides farinae) was commercially available from Woongbee Meditech Co. (Korea), and the dust mite extract was dissolved in 10 mg/ml of phosphate buffered saline (PBS) containing 0.5% Tween 20, and then used herein. NC/Nga mice were bred under conventional breeding conditions, and induced to develop into the atopic dermatitis. […] The […] and K6PC-9 were applied onto the ear dorsal surfaces of the mice 30 minutes before the application of the dust mite extract, and the efficiency of the therapeutic agent was evaluated for a level of an intercurrent disease by measuring a thickness of a mouse ear."}, "hairless mouse": {"test_system": "hairless mouse", "experiment": "Suppression of epidermal proliferation in tape-stripping hyperplasia model, epidermal thickness (H&E)", "assay_type": "in vivo", "details": "tape stripping twice per day for 5 days, 1% applied twice per day for 3 days, compared to the control (vehicle)", "from_the_text": "Effects on Suppression of Epidermal Proliferation Next, in order to evaluate effects of the K6PC-9P on the skin hyperplasia that is one of the representative skin disorders in the atopic dermatitis, a hyperplasia model where a mouse has overgrown cuticles was established by repeating a tape stripping procedure on a hairless mouse in the Examples according to the present invention. This hyperplasia model was established since the atopic skin has ill-balanced conditions in the epidermal proliferation and differentiation, and particularly has an increased epidermal proliferation level, but has a pattern in which mouse epidermis grows abnormally due to the reduced differentiation level. Accordingly, to recover this ill-balanced condition into a normal state may be considered to be an important point to treat the atopic dermatitis.\nHyperplasia in the back of a hairless mouse was induced by subjecting the tape stripping procedure twice per day for 5 days, and 1% K6PC-9P was applied to the hairless mouse twice per day for 3 days from the third day to fifth day of the induction of the atopic dermatitis. Then, mouse skin tissues were biopsied and fixed into a paraffin wax, and determined for epidermal thickness using a Hematoxylin & Eosin staining method. […]"}},
  "data": [
    {"smiles": "CCCCCCCC(=O)C(CCCCCC)C(=O)NCCOP(=O)(O)O", "note": "(stereo not shown) [K6PC-9P, N-(ethyl dihydrogenphosphate)-2-hexyl-3-oxo-decanamide]", "values": [
      {"measurement": "generation of the Th1 cytokine, interleukin-2", "setting": "T lymphocyte", "result": "increases"},
      {"measurement": "generation of the Th2 cytokine, interleukin-4", "setting": "T lymphocyte", "result": "decreases"},
      {"measurement": "increase in the thickness of the mouse ear caused by dust mite extract", "setting": "NC/Nga mouse", "result": "significantly suppresses"},
      {"measurement": "growth of the mouse epidermis (epidermal thickness)", "setting": "hairless mouse", "result": "suppressed significantly"}
    ]},
    {"smiles": "CCCCCCCC(=O)C(CCCCCC)C(=O)NCCO", "note": "(stereo not shown) [K6PC-9, N-ethanol-2-hexyl-3-oxo-decanamide, reference compound]", "values": [
      {"measurement": "generation of the Th1 cytokine, interleukin-2", "setting": "T lymphocyte", "result": "does not affect"},
      {"measurement": "generation of the Th2 cytokine, interleukin-4", "setting": "T lymphocyte", "result": "does not affect"},
      {"measurement": "increase in the thickness of the mouse ear caused by dust mite extract", "setting": "NC/Nga mouse", "result": "slight suppression effect"}
    ]}
  ]
}
